Assay results: ChEMBL document CHEMBL6121036, “Evaluation of Cereblon-Directing Warheads for the Development of Orally Bioavailable PROTACs” (J Med Chem, 2025)
Values after ≈ are worked out from the molar mass of the structure shown. Active and inactive are the calls of the source. No cut-off for these calls is given here.

Key:
[1] = target: T1, Protein cereblon/Bromodomain-containing protein 4 (Homo sapiens, UniProt O60885+Q96SW2); assay: PROTAC activity at CRBN/Hibit-tagged BRD4 (unknown origin) expressed in HEK293 cells co-expressing LgBiT assessed as degradation of BRD4 incubated for 24 hrs by […] glo-max assay relative to control; format: cell-based
[2] = Half life in mouse at 50 mg/kg, ip; format: ADME, organism-based; conditions: in vivo
[3] = Metabolic stability in mouse liver microsomes assessed as half life; format: ADME, Microsome; conditions: liver microsomes
[4] = target: T2, Protein cereblon/Bromodomain-containing protein 4/DNA damage-binding protein 1 (Homo sapiens) (UniProt O60885+Q96SW2+Q16531); assay: Binding affinity to his-tagged CRBN/DDB1/GST-tagged BRD4 (49 to 170 residues)(unknown origin) assessed as ternary complex formation by measuring AUC incubated for 1 hr by luminescence based Alphascreen assay; format: protein assay
[5] = Kinetic aqueous solubility of the compound at pH 7.4; format: physicochemical; conditions: read-out: Kinetic_solubility
[6] = test system: HEK293; assay: Cytotoxicity against HEK293 cells expressing LgBiT fused HiBiT-BRD2 measured after 24 hrs by cell titer-glo assay; format: toxicity, cell-based; conditions: human, hek293, 24 h
[7] = target: T1, Protein cereblon/Bromodomain-containing protein 4; assay: PROTAC activity at CRBN/Hibit-tagged BRD4 (unknown origin) expressed in HEK293 cells co-expressing LgBiT assessed as degradation of BRD4 incubated for 24 hrs by […] glo-max assay; format: cell-based
[8] = target: T1, Protein cereblon/Bromodomain-containing protein 4; assay: PROTAC activity at CRBN/Hibit-tagged BRD4 (unknown origin) expressed in HEK293 cells co-expressing LgBiT assessed as degradation rate incubated for 24 hrs by […] glo-max assay; format: cell-based
[9] = Stability in mouse plasma assessed as half life by UPLC-MS/MS analysis; format: ADME, cell-free
[10] = Effect on FGL2 level in human MV4-11 cells assessed as fold change at 100 nM measured after 4 hrs; format: functional
[11] = Effect on MYC level in human MV4-11 cells assessed as fold change at 100 nM measured after 4 hrs; format: functional
[12] = AUC last in female CD1 mouse at 10 mg/kg, po measured upto 24 hrs by LC-MS/MS analysis; format: ADME, organism-based; conditions: in vivo
[13] = Effect on NSA2 level in human MV4-11 cells assessed as fold change at 100 nM measured after 4 hrs; format: functional
[14] = Effect on FYTTD1 level in human MV4-11 cells assessed as fold change at 100 nM measured after 4 hrs; format: functional
[15] = Cmax in female CD1 mouse at 10 mg/kg, po measured upto 24 hrs by LC-MS/MS analysis; format: ADME, organism-based; conditions: in vivo
[16] = test system: HD-MB03; assay: Cytotoxicity against human HD-MB03 cells assessed as reduction in cell viability incubated for 72 hrs by cell-titer glo assay; format: functional, cell-based; conditions: HD-MB03, 72 h
[17] = Effect on ZBTB21 level in human MV4-11 cells assessed as fold change at 100 nM measured after 4 hrs; format: functional
[18] = Effect on AURKA level in human MV4-11 cells assessed as fold change at 100 nM measured after 4 hrs; format: functional
[19] = Effect on CCNF level in human MV4-11 cells assessed as fold change at 100 nM measured after 4 hrs; format: functional
[20] = Effect on TP53 level in human MV4-11 cells assessed as fold change at 100 nM measured after 4 hrs; format: functional
[21] = target: T3, Protein cereblon/Bromodomain-containing protein 2 (Homo sapiens) (UniProt P25440+Q96SW2); assay: PROTAC activity at CRBN/Hibit-tagged CRISPR BRD2 (unknown origin) expressed in HEK293 cells coexpressing LgBiT assessed as degradation of BRD2 measured after 10 to 14 hrs by […] glo-max assay; format: cell-based; conditions: time 10-14 hrs
[22] = Effect on PLK1 level in human MV4-11 cells assessed as fold change at 100 nM measured after 4 hrs; format: functional
[23] = test system: MV4-11; assay: Upregulation of MIER1 level in human MV4-11 cells at 100 nM incubated for 30 mins; format: functional, cell-based
[24] = target: T1, Protein cereblon/Bromodomain-containing protein 4; assay: PROTAC activity at CRBN/Hibit-tagged CRISPR BRD4 (unknown origin) expressed in HEK293 cells co-expressing LgBiT assessed as degradation of BRD4 by […] glo-max assay relative to control; format: cell-based
[25] = Effect on RNF166 level in human MV4-11 cells assessed as fold change at 100 nM measured after 4 hrs; format: functional
[26] = Effect on BRD4 level in human MV4-11 cells assessed as fold change at 100 nM measured after 4 hrs; format: functional
[27] = target: T4, Protein cereblon/Bromodomain-containing protein 3 (Homo sapiens) (UniProt Q15059+Q96SW2); assay: PROTAC activity at CRBN/Hibit-tagged CRISPR BRD3 (unknown origin) expressed in HEK293 cells co-expressing LgBiT assessed as degradation of BRD3 by […] glo-max assay relative to control; format: cell-based
[28] = target: T1, Protein cereblon/Bromodomain-containing protein 4; assay: PROTAC activity at CRBN/Hibit-tagged CRISPR BRD4 (unknown origin) expressed in HEK293 cells co-expressing LgBiT assessed as degradation of BRD4 by […] glo-max assay; format: cell-based
[29] = Effect on BRD3 level in human MV4-11 cells assessed as fold change at 100 nM measured after 4 hrs; format: functional
[30] = target: T1, Protein cereblon/Bromodomain-containing protein 4; assay: PROTAC activity at CRBN/Hibit-tagged CRISPR BRD4 (unknown origin) expressed in HEK293 cells co-expressing LgBiT assessed as degradation of BRD4 measured after 18 to 24 hrs by […] glo-max assay; format: cell-based; conditions: time 18-24 hrs
[31] = target: T3, Protein cereblon/Bromodomain-containing protein 2 (Homo sapiens); assay: PROTAC activity at CRBN/Hibit-tagged CRISPR BRD2 (unknown origin) expressed in HEK293 cells coexpressing LgBiT assessed as degradation of BRD2 by […] glo-max assay; format: cell-based
[32] = target: Protein cereblon (Homo sapiens) (UniProt Q96SW2); assay: Binding affinity to CRBN (unknown origin)
[33] = Effect on NOP53 level in human MV4-11 cells assessed as fold change at 100 nM measured after 4 hrs; format: functional
[34] = Downregulation of BRD3 protein level in human MV4-11 cells at 100 nM incubated for 4 hrs relative to control; format: functional
[35] = Effect on MCL1 level in human MV4-11 cells assessed as fold change at 100 nM measured after 4 hrs; format: functional
[36] = Effect on ZFP36L2 level in human MV4-11 cells assessed as fold change at 100 nM measured after 4 hrs; format: functional
[37] = Downregulation of BRD4 protein level in human MV4-11 cells at 100 nM incubated for 4 hrs relative to control; format: functional
[38] = Downregulation of BRD2 protein level in human MV4-11 cells at 100 nM incubated for 4 hrs relative to control; format: functional
[39] = target: T4, Protein cereblon/Bromodomain-containing protein 3 (Homo sapiens); assay: PROTAC activity at CRBN/Hibit-tagged CRISPR BRD3 (unknown origin) expressed in HEK293 cells co-expressing LgBiT assessed as degradation of BRD3 measured after 13 to 16 hrs by […] glo-max assay; format: cell-based; conditions: time 13-16 hrs
[40] = Effect on BRD2 level in human MV4-11 cells assessed as fold change at 100 nM measured after 4 hrs; format: functional
[41] = Effect on CCND3 level in human MV4-11 cells assessed as fold change at 100 nM measured after 4 hrs; format: functional
[42] = test system: MV4-11; assay: Cytotoxicity against human MV4-11 cells assessed as reduction in cell viability incubated for 72 hrs by cell-titer glo assay; format: functional, cell-based; conditions: MV4-11, 72 h
[43] = Effect on CDC42EP3 level in human MV4-11 cells assessed as fold change at 100 nM measured after 4 hrs; format: functional
[44] = target: T3, Protein cereblon/Bromodomain-containing protein 2 (Homo sapiens); assay: PROTAC activity at CRBN/Hibit-tagged CRISPR BRD2 (unknown origin) expressed in HEK293 cells coexpressing LgBiT assessed as degradation of BRD2 by […] glo-max assay relative to control; format: cell-based
[45] = Effect on PLAU level in human MV4-11 cells assessed as fold change at 100 nM measured after 4 hrs; format: functional
[46] = target: T4, Protein cereblon/Bromodomain-containing protein 3 (Homo sapiens); assay: PROTAC activity at CRBN/Hibit-tagged CRISPR BRD3 (unknown origin) expressed in HEK293 cells co-expressing LgBiT assessed as degradation of BRD3 by […] glo-max assay; format: cell-based
[47] = Permeability in MDCK-II cells incubated for 1 hr by UPLC/MS/UV analysis; format: ADME, cell-based, Canis lupus familiaris; conditions: dog, read-out: permeability
[48] = target: T2, Protein cereblon/Bromodomain-containing protein 4/DNA damage-binding protein 1 (Homo sapiens); assay: Binding affinity to his-tagged CRBN/DDB1/GST-tagged BRD4 (49 to 170 residues)(unknown origin) assessed as ternary complex formation (AUC) incubated for 1 hr by luminescence based Alphascreen assay; format: protein assay
[49] = test system: MV4-11; assay: Upregulation of ZBTB21 level in human MV4-11 cells at 100 nM incubated for 30 mins; format: functional, cell-based

Cc1sc2c(c1C)C(c1ccc(Cl)cc1)=N[C@@H](CC(=O)NCCCCCNC(=O)COc1ccc(C3CCC(=O)NC3=O)cc1)c1nnc(C)n1-2 (stereo partly drawn)
Emax [1]: 75.7% | half-life [2]: 25.8 min | half-life [3]: 2.4 min | AUC [4]: 298000 | solubility kinetic [5]: 24.4 µM (≈ 17.8 µg/mL) | Activity [6]: Non-toxic | DC50 [7]: 25 nM

Cc1sc2c(c1C)C(c1ccc(Cl)cc1)=N[C@@H](CC(=O)N1CCC(CN3CCN(c4ccc5c(c4)oc(=O)n5C4CCC(=O)NC4=O)CC3)CC1)c1nnc(C)n1-2 (stereo partly drawn)
Activity [8]: 0.395 fRLU/hr | half-life [9]: 822 min | fold change (FC) [10]: -0.81 | fold change (FC) [11]: -2.38 | AUC(0-t) at 24 h [12]: 181 ng·h/mL | fold change (FC) [13]: -1.09 | fold change (FC) [14]: -1.64 | Cmax [15]: 70 ng/mL | Emax [1]: 94% | IC50 [16]: 0.38 nM | fold change (FC) [17]: -1.77 | fold change (FC) [18]: -0.94 | fold change (FC) [19]: -1.74 | fold change (FC) [20]: 1.94 | Activity [21]: Active | fold change (FC) [22]: -0.8 | Activity [23]: Active | Activity [24]: > 90% | fold change (FC) [25]: -0.64 | fold change (FC) [26]: -3.75 | Activity [27]: > 95% | Activity [28]: Active | fold change (FC) [29]: -4.05 | solubility kinetic [5]: 14.8 µM (≈ 12 µg/mL) | Activity [30]: Active | Activity [31]: Active | Activity [32]: Active | fold change (FC) [33]: -0.92 | Activity [34]: 90% | fold change (FC) [35]: -1.14 | Activity [6]: Non-toxic | fold change (FC) [36]: -1.14 | Activity [37]: 90% | Activity [38]: 90% | Activity [39]: Active | fold change (FC) [40]: -3.2 | fold change (FC) [41]: -1.03 | IC50 [42]: 0.04 nM | fold change (FC) [43]: -1.17 | Activity [44]: > 95% | DC50 [7]: 0.25 nM | fold change (FC) [45]: -1.13 | Activity [46]: Active | Papp at 1 h [47]: 1.2 ×10⁻⁶ cm/s | Activity [48]: Active | Activity [49]: Active
